Earlier results as cited in patent publication US5969096A (priority 1998, dated 1999).

Target: neuronal voltage-sensitive Ca2+ channels

## ω-conotoxin GVIA
  affinity (Kd) for high-affinity targets: sub-picomolar
  time for 50% of the peptide to dissociate: more than 7 hours
